Measurements from US20090137664A1, “SAURURUS CERNUUS COMPOUNDS THAT INHIBIT CELLULAR RESPONSES TO HYPOXIA” (priority 2003, published 2009).

Key:
[1] = tested on: secreted VEGF protein; assay: hypoxic induction of secreted VEGF protein in T47D cells (ELISA); type: cell-based, human
Protocol: The effects of compounds 1 and 2 on hypoxic induction of secreted VEGF protein are examined in T47D cells. Exponentially grown T47D cells are plated at the density of 30,000 cells/well into 96-well plates. Compound treatment and hypoxic exposure are the same as described. Following incubation, the concentration of secreted VEGF protein in the conditioned media is determined by ELISA (R & D Systems) and the data normalized by the number of viable cells. Results shown in FIG. 4 are averages from a representative experiment performed in quadruplicate, the bars represent standard error. An asterisk (*) indicates the level of significance (p<0.01) relative to the hypoxic control, two asterisks (**) (p<0.0001), and no asterisk indicates no statistical difference (ANOVA and Fisher's PLSD post hoc test).
As discussed earlier, one important HIF-1 target gene is VEGF, a key factor for tumor angiogenesis. Compounds that can inhibit both HIF-1 activation and the production of secreted VEGF protein represent potential efficacious chemotherapeutic agents that inhibit both tumor survival and hypoxia induced angiogenesis. The effects of four active examples (compounds 2, 3, 4, and 5) on hypoxic induction of secreted VEGF protein are examined in T47D cells and the data are presented in FIG. 9. Exponentially grown T47D cells are plated at the density of 356,000 cells/well into 12-well plates. Compound treatment and hypoxic exposure are the same as described. Following incubation, the concentration of secreted VEGF protein in the conditioned media is determined by ELISA (R & D Systems) and the data normalized by the number of viable cells. […] Hypoxic exposure leads to a 2-fold increase in the level of secreted VEGF protein. […] The level of significance (p<0.01) is determined by ANOVA and Fisher's PLSD post hoc test. The exemplary compounds 2, 3, and 4 all completely block hypoxic induction of secreted VEGF protein at concentrations as low as 10 nM. The exemplary compound 5 inhibits the hypoxic induction by 60% at 10 nM, and completely blocks at 100 nM. When tested at 100 nM, none of the compounds interfere with the ELISA assay using VEGF standard (no greater than 15% difference).

[2] = tested on: secreted VEGF protein; assay: induction of secreted VEGF protein by 1,10-phenanthroline in T47D cells (ELISA); type: cell-based, human; details: T47D, 1,10-phenanthroline 10 μM, 16 hr
Protocol: Cell plating and compound treatment is similar to those described earlier for hypoxic conditions. […] At the end of the incubation, the concentration of secreted VEGF protein in the conditioned media is determined by ELISA and the data normalized by the number of viable cells.

[3] = tested on: HIF-1α protein; assay: Western blot, hypoxic induction of nuclear HIF-1α protein in T47D cells; type: cell-based, human; details: T47D nuclear extract, hypoxia 4 hr
Protocol: Due to the low abundance of HIF-1α protein in whole cell extract, nuclear extract is prepared and the level of HIF-1α protein in the nuclear extract determined by Western blot. Briefly, exponentially grown T47D cells are exposed to compound 2 for 30 minutes. […] Nuclear extracts are prepared from control and treated cells, separated on a SDS/PAGE gel, the separated proteins transferred to a nitrocellulose membrane, incubated with the primary antibodies (anti-HIF-1α, and anti-HIF-1β monoclonal antibodies, Novus Biologicals), secondary antibody biotinylated anti-mouse immunoglobulin G and Vectastain ABC reagent (Vector Laboratories), and developed using ECL reagents (Amersham Biosciences). […] No change in HIF-1β protein level is observed across the treatments. It is reasonable to conclude that the selectivity of compound 2 towards hypoxia-activated HIF-1 is caused by selective blockade of the hypoxic induction of HIF-1 protein.
To investigate the mechanism of action, the effects of these compounds on hypoxic stabilization of HIF-1α protein are examined in T47D cells using Western blot.

[4] = tested on: M14; assay: NCI in vitro cell line screen (SRB), Melanoma M14; type: cell-based
Protocol: (§1) For exemplary purposes, an embodiment of the present invention was tested for activity with respect to certain cancer cell lines. The following Tables show results from in vitro 60-cell line antitumor testing from the US National Cancer Institute Developmental Therapeutics Program (NCI-DTP) on compound 2. The testing was in connection with the NCI's In Vitro Cell Line Screening Project (IVCLSP). Detailed information regarding the experiments and their interpretation is available from the NCI.

[5] = tested on: OVCAR-3; assay: NCI in vitro cell line screen (SRB), Ovarian Cancer OVCAR-3; type: cell-based
Protocol: as §1

[6] = tested on: SN12C; assay: NCI in vitro cell line screen (SRB), Renal Cancer SN12C; type: cell-based
Protocol: as §1

[7] = tested on: TK-10; assay: NCI in vitro cell line screen (SRB), Renal Cancer TK-10; type: cell-based
Protocol: as §1

[8] = tested on: MDA-MB-231/ATCC; assay: NCI in vitro cell line screen (SRB), Breast Cancer MDA-MB-231/ATCC; type: cell-based
Protocol: as §1

[9] = Homo sapiens, read-out: LC50 (the source's name)

COc1ccc([C@@H](O)[C@@H](C)Oc2ccc([C@H]3O[C@H](c4ccc(O[C@H](C)[C@H](O)c5ccc6c(c5)OCO6)c(OC)c4)[C@H](C)[C@H]3C)cc2OC)cc1OC [Compound 2, manassantin B]
inhibition of VEGF protein levels relative to the hypoxia-induced positive control ([1]; 12-well, p<0.01): significantly inhibit | reduction of secreted VEGF protein induced by hypoxia ([1]; 96-well, 1 at 100 nM, 2 at 10 nM, PD98059 at 100 μM): statistically significant reduction | relative potency in reducing the level of secreted VEGF protein ([1]; hypoxia): ten times more potent than 1 | effect on the induction of secreted VEGF protein by 1,10-phenanthroline [2]: does not effect | hypoxic induction of HIF-1α protein [3]: specifically inhibits | TGI [4]: >1.00E−4 Molar | GI50 ([4]; Homo sapiens): 4.19 µM | CC50 [4, 9]: > 100 µM | Mean Optical Densities ([4]; Log10 Concentration −4.0 Molar): 0.439 | Percent Growth ([4]; Log10 Concentration −4.0 Molar): 12% | Mean Optical Densities ([4]; Log10 Concentration −5.0 Molar): 0.521 | Percent Growth ([4]; Log10 Concentration −5.0 Molar): 30% | Mean Optical Densities ([4]; Log10 Concentration −6.0 Molar): 0.764 | Percent Growth ([4]; Log10 Concentration −6.0 Molar): 83% | Mean Optical Densities ([4]; Log10 Concentration −7.0 Molar): 0.843 | Percent Growth ([4]; Log10 Concentration −7.0 Molar): 100% | Mean Optical Densities ([4]; Log10 Concentration −8.0 Molar): 0.809 | Percent Growth ([4]; Log10 Concentration −8.0 Molar): 93% | TGI [5]: 4.32E−6 Molar | GI50 ([5]; Homo sapiens): 0.627 µM | CC50 [5, 9]: > 100 µM | Mean Optical Densities ([5]; Log10 Concentration −4.0 Molar): 0.367 | Percent Growth ([5]; Log10 Concentration −4.0 Molar): −36% | Mean Optical Densities ([5]; Log10 Concentration −5.0 Molar): 0.465 | Percent Growth ([5]; Log10 Concentration −5.0 Molar): −19% | Mean Optical Densities ([5]; Log10 Concentration −6.0 Molar): 0.616 | Percent Growth ([5]; Log10 Concentration −6.0 Molar): 33% | Mean Optical Densities ([5]; Log10 Concentration −7.0 Molar): 0.722 | Percent Growth ([5]; Log10 Concentration −7.0 Molar): 117% | Mean Optical Densities ([5]; Log10 Concentration −8.0 Molar): 0.679 | Percent Growth ([5]; Log10 Concentration −8.0 Molar): 83% | TGI [6]: >1.00E−4 Molar | GI50 ([6]; Homo sapiens): 35.2 µM | CC50 [6, 9]: > 100 µM | Mean Optical Densities ([6]; Log10 Concentration −4.0 Molar): 0.594 | Percent Growth ([6]; Log10 Concentration −4.0 Molar): 42% | Mean Optical Densities ([6]; Log10 Concentration −5.0 Molar): 0.669 | Percent Growth ([6]; Log10 Concentration −5.0 Molar): 59% | Mean Optical Densities ([6]; Log10 Concentration −6.0 Molar): 0.723 | Percent Growth ([6]; Log10 Concentration −6.0 Molar): 72% | Mean Optical Densities ([6]; Log10 Concentration −7.0 Molar): 0.775 | Percent Growth ([6]; Log10 Concentration −7.0 Molar): 84% | Mean Optical Densities ([6]; Log10 Concentration −8.0 Molar): 0.770 | Percent Growth ([6]; Log10 Concentration −8.0 Molar): 82% | TGI [7]: >1.00E−4 Molar | GI50 ([7]; Homo sapiens): 4.15 µM | CC50 [7, 9]: > 100 µM | Mean Optical Densities ([7]; Log10 Concentration −4.0 Molar): 1.117 | Percent Growth ([7]; Log10 Concentration −4.0 Molar): 16% | Mean Optical Densities ([7]; Log10 Concentration −5.0 Molar): 1.163 | Percent Growth ([7]; Log10 Concentration −5.0 Molar): 22% | Mean Optical Densities ([7]; Log10 Concentration −6.0 Molar): 1.674 | Percent Growth ([7]; Log10 Concentration −6.0 Molar): 95% | Mean Optical Densities ([7]; Log10 Concentration −7.0 Molar): 1.684 | Percent Growth ([7]; Log10 Concentration −7.0 Molar): 97% | Mean Optical Densities ([7]; Log10 Concentration −8.0 Molar): 1.707 | Percent Growth ([7]; Log10 Concentration −8.0 Molar): 100% | TGI [8]: 4.74E−5 Molar | GI50 ([8]; Homo sapiens): 0.968 µM | CC50 [8, 9]: > 100 µM | Mean Optical Densities ([8]; Log10 Concentration −4.0 Molar): 0.384 | Percent Growth ([8]; Log10 Concentration −4.0 Molar): −7% | Mean Optical Densities ([8]; Log10 Concentration −5.0 Molar): 0.457 | Percent Growth ([8]; Log10 Concentration −5.0 Molar): 14% | Mean Optical Densities ([8]; Log10 Concentration −6.0 Molar): 0.569 | Percent Growth ([8]; Log10 Concentration −6.0 Molar): 50% | Mean Optical Densities ([8]; Log10 Concentration −7.0 Molar): 0.630 | Percent Growth ([8]; Log10 Concentration −7.0 Molar): 69% | Mean Optical Densities ([8]; Log10 Concentration −8.0 Molar): 0.640 | Percent Growth ([8]; Log10 Concentration −8.0 Molar): 72%
